Values quoted from earlier work in patent publication US5183829A, “Oral liquid compositions of non-steroidal anti-inflammatory drugs” (priority 1991, dated 1993).

Conditions: enteric coated tablet vs aqueous solution

O=C(O)Cc1ccccc1Nc1c(Cl)cccc1Cl [sodium diclofenac]
oral bioavailability: more bioavailable orally from an enteric coated tablet than from an aqueous solution
